This series is described as follows: Solubility of selected FT4 and FT5 compounds in organic solvents (10 mg compound, stepwise 5 mL solvent additions, ultrasonic bath). It counts as physicochemical. The conditions noted are these: thermodynamic from solid. The protocol: Solubility of Selected FT4 And FT5 Compounds Table 1 provides a solubility comparison of some α-, α′-unsubstituted, β-, β′-alkyl substituted FT4 (and FT5), with some α-, α′-substituted, β-, β′-alkyl substituted FT4 (and FT5) compounds. General Procedure: 10 mg of a FT4 or FT5 compound was mixed with 5.0 mL of a specified solvent and then sealed in a screw-top glass vial. The resulting mixture was kept in an ultrasonic bath for 30 minutes at ambient temperature and then kept quiescent for 30 minutes to check whether a clear solution formed. If the mixture was still not clear after these 60 minutes, an additional 5.0 mL of the same solvent was added to the vial and the 60 minute mixing and standing procedure was repeated up to a total of 20 mL of solvent.

Where [1] appears, read: CH2Cl2, organic solvent or mixture, 10 mg compound in 5 mL CH2Cl2, ambient temperature, read-out: Solubility CH2Cl2.
Setting [2] is: CH2Cl2, organic solvent or mixture, 10 mg compound in 10 mL CH2Cl2, ambient temperature, read-out: Solubility CH2Cl2.
Where [3] appears, read: CH2Cl2, organic solvent or mixture, 10 mg compound in 15 mL CH2Cl2, ambient temperature, read-out: Solubility CH2Cl2.
[4] abbreviates: hexane, organic solvent or mixture, 10 mg compound in 5 mL hexane, ambient temperature, read-out: Solubility hexane.
Where [5] appears, read: hexane, organic solvent or mixture, 10 mg compound in 10 mL hexane, ambient temperature, read-out: Solubility hexane.
The mark [6] stands for this setting: hexane, organic solvent or mixture, 10 mg compound in 15 mL hexane, ambient temperature, read-out: Solubility hexane.
[7] abbreviates: hexane, organic solvent or mixture, 10 mg compound in 20 mL hexane, ambient temperature, read-out: Solubility hexane.
Where [8] appears, read: toluene, organic solvent or mixture, 10 mg compound in 5 mL toluene, ambient temperature, read-out: Solubility toluene.
The mark [9] stands for this setting: toluene, organic solvent or mixture, 10 mg compound in 10 mL toluene, ambient temperature, read-out: Solubility toluene.
Setting [10] is: CH2Cl2, organic solvent or mixture, 10 mg compound in 20 mL CH2Cl2, ambient temperature, read-out: Solubility CH2Cl2.
The mark [11] stands for this setting: toluene, organic solvent or mixture, 10 mg compound in 15 mL toluene, ambient temperature, read-out: Solubility toluene.
Where [12] appears, read: toluene, organic solvent or mixture, 10 mg compound in 20 mL toluene, ambient temperature, read-out: Solubility toluene.

Where two headings read alike, the source gives them in different places.

Take `CCCCCCCCCCCCCCCCCc1c(-c2ccccc2)sc2c1sc1c3sc(-c4ccccc4)c(CCCCCCCCCCCCCCCCC)c3sc21`: the solubility (in general, the concentration that dissolves in the medium under given conditions) at 60 min runs as follows: under setting [1], below 2000 µg/mL; under setting [2], below 2000 µg/mL; under setting [3], above 500 µg/mL; under setting [4], below 2000 µg/mL; under setting [5], below 2000 µg/mL; under setting [6], below 2000 µg/mL. The solubility at 60 min reads like this: under setting [7], below 2000 µg/mL; under setting [8], above 500 µg/mL; under setting [9], above 500 µg/mL.
With `CCCCCCCCCCCCCc1csc2c1sc1c2sc2c3scc(CCCCCCCCCCCCC)c3sc21`, the solubility at 60 min under setting [1] is below 2000 µg/mL; the solubility at 60 min under setting [2] was above 500 µg/mL; the solubility at 60 min under setting [4] was below 2000 µg/mL; the solubility at 60 min under setting [5] was above 500 µg/mL; the solubility at 60 min under setting [8] is above 500 µg/mL.
With `CCCCCCCCCCCCCc1c(-c2ccccc2)sc2c1sc1c2sc2c3sc(-c4ccccc4)c(CCCCCCCCCCCCC)c3sc21`, the solubility at 60 min is above 500 µg/mL under setting [1], above 500 µg/mL under setting [4] and above 500 µg/mL under setting [8].
On to `CCCCCCCCCCCCCc1c(-c2cccs2)sc2c1sc1c3sc(-c4cccs4)c(CCCCCCCCCCCCC)c3sc21`, for which the solubility at 60 min is above 500 µg/mL under setting [1]; below 2000 µg/mL under setting [4]; below 2000 µg/mL under setting [5]; below 2000 µg/mL under setting [6]; below 2000 µg/mL under setting [7]; above 500 µg/mL under setting [8].
Turning to `CCCCCCCCCCCCCc1c(-c2cccs2)sc2c1sc1c2sc2c3sc(-c4cccs4)c(CCCCCCCCCCCCC)c3sc21`, the solubility at 60 min is, setting by setting: under setting [1], above 500 µg/mL; under setting [4], below 2000 µg/mL; under setting [5], below 2000 µg/mL; under setting [6], below 2000 µg/mL; under setting [7], below 2000 µg/mL; under setting [8], above 500 µg/mL.
Regarding `CCCCCCCCCCCCCCCCCc1csc2c1sc1c3scc(CCCCCCCCCCCCCCCCC)c3sc21`, the solubility at 60 min by setting is: under setting [1], below 2000 µg/mL; under setting [2], below 2000 µg/mL; under setting [3], below 2000 µg/mL; under setting [10], below 2000 µg/mL; under setting [4], below 2000 µg/mL; under setting [5], below 2000 µg/mL. Moreover, the solubility at 60 min is below 2000 µg/mL under setting [6]; below 2000 µg/mL under setting [7]; below 2000 µg/mL under setting [8]; below 2000 µg/mL under setting [9]; below 2000 µg/mL under setting [11]; below 2000 µg/mL under setting [12].
Turning to `CCCCCCCCCCCCCc1csc2c1sc1c3scc(CCCCCCCCCCCCC)c3sc21`, the solubility at 60 min is, setting by setting: under setting [1], below 2000 µg/mL; under setting [2], above 500 µg/mL; under setting [4], below 2000 µg/mL; under setting [5], below 2000 µg/mL; under setting [6], below 2000 µg/mL; under setting [7], below 2000 µg/mL. Moreover, the solubility at 60 min runs as follows: under setting [8], below 2000 µg/mL; under setting [9], above 500 µg/mL.
On to `CCCCCCCCCCCCCc1c(-c2ccccc2)sc2c1sc1c3sc(-c4ccccc4)c(CCCCCCCCCCCCC)c3sc21`, for which the solubility at 60 min runs as follows: under setting [1], below 2000 µg/mL; under setting [2], above 500 µg/mL; under setting [4], below 2000 µg/mL; under setting [5], below 2000 µg/mL; under setting [6], below 2000 µg/mL; under setting [7], above 500 µg/mL. The solubility at 60 min under setting [8] is above 500 µg/mL.
Consider `CCCCCCCCCCCCCCCCCc1c(-c2cccs2)sc2c1sc1c3sc(-c4cccs4)c(CCCCCCCCCCCCCCCCC)c3sc21`, for which the solubility at 60 min under setting [1] was below 2000 µg/mL; the solubility at 60 min under setting [2] is below 2000 µg/mL; the solubility at 60 min under setting [3] was below 2000 µg/mL; the solubility at 60 min under setting [10] is above 500 µg/mL; the solubility at 60 min under setting [4] was below 2000 µg/mL; the solubility at 60 min under setting [5] is below 2000 µg/mL. The solubility at 60 min is below 2000 µg/mL under setting [6]; below 2000 µg/mL under setting [7]; below 2000 µg/mL under setting [8]; below 2000 µg/mL under setting [9]; above 500 µg/mL under setting [11]; above 500 µg/mL under setting [12].

Values taken from patent US7919634B2, “Fused thiophenes, articles, and methods thereof” (Corning Incorporated, priority 2009, dated 2011).
